Data set [1] concerns Human retinal endothelial cells. Nature of the data set: Cell penetration and retention, western blot with anti-P1 monoclonal antibody. The class given is in vitro ADME. The conditions noted are these: 16 h; for intracellular concentration (level of P1 in cells, densitometry relative to β-actin): cell uptake, 100 µM peptide, serum-free DMEM/F12 (low glucose), cell lysate, western blot with anti-P1 monoclonal antibody, mean ± SEM, n = 3. As to the method: Fig. 1 Conjugation with CPP increases the cell permeability of P1. A Human retinal endothelial cells were treated with vehicle (CONT), P1 or CPP-P1 (100 µM). Following incubation for 16 h, the levels of P1 in cells were detected by western blotting using an anti-P1 monoclonal antibody. Densitometric analysis was performed relative to β-actin levels (n = 3). Data represented as mean ± SEM, One-way ANOVA followed by Tukey’s multiple comparisons test, ***p < 0.001, ns-not significant. The entire western blot image is shown in Supplementary Figure 1. B Human retinal explants comparing the difference in neuroprotective efficacy of P1 with and without the CPP. C Representative images, RBPMS, Scale bar = 100 µm.
Human retinal endothelial cells were incubated with vehicle, P1, or CPP-P1 (100 µM) in serum-free DMEM/F12 (low glucose) medium for 16 h. Cells were treated with 1X RIPA buffer containing protease inhibitor cocktail and cell lysates were prepared. Western blot was performed using an anti-P1 monoclonal antibody with β-actin as the loading control (n = 3).
On the technique in general: Immunoblotting shows a protein as a band on a membrane.

Another data set deals with RGC. The conditions noted are these: accumulates within RGC somas in a time-dependent manner; cited from earlier work.

The values that follow come from article PMC11213865, “Mechanisms contributing to inhibition of retinal ganglion cell death by cell permeable peptain-1 under glaucomatous stress” (Cell Death Discovery, 2024).

No end group written: not given here.

For the sequence VPTLKDRFSVNLDVKHFSPEELKVK [CPP-P1], the “cell permeability of CPP-P1 relative to P1” value in data set [1] (100 µM, human retinal endothelial cells, western blot) was “approximately seven”. In data set [1], the “intracellular concentration (level of P1 in cells, densitometry relative to β-actin)” value is on record as 1.41 ± 0.17.

In the case of DRFSVNLDVKHFSPEELKVK [P1], the “intracellular concentration (level of P1 in cells, densitometry relative to β-actin)” value in data set [1] stood at 0.23 ± 0.01. Further, the RGC permeability entry in the data set with RGC is “RGC-permeable”.
